Test results: patent US20100317052A1, “PROCESS FOR DETECTING HELICOBACTER PYLORI USING ALIPHATIC AMIDES” (priority 2006, published 2010)

Tests used:
H. pylori = test: Formation of carboxylic acid from aliphatic amide in H. pylori enriched liquid culture, SPME of vapor phase and GC-MS (SIM); format: cell-based, Helicobacter pylori; conditions: for formation of the respective acid in the vapor phase: amide added to medium containing H. pylori (collection cultures and clinical isolates), GC-MS
Description: In vitro ex vivo experimental tests were carried out in H. pylori cultures from collections and clinical isolates. […] The experimental tests were performed in vitro ex vivo in H. pylori cultures from collection and clinical isolates enriched in liquid medium (F12) under microaerophilic conditions. These compounds were administrated as diluted aqueous solutions (0.5 mL) to the liquid culture media (25 mL), 120 mL glass flasks hermetically sealed and encapsulated with a cap containing a septum. The collection of the acids that were formed after the amide administration described in 1 was carried out after acidification of the medium with acid tartaric (mimetizing the stomach's pH) and exposing to the flask's vapor phase for 5 minutes at 37° C. a solid-phase microextraction fiber (SPME) coated with carbowax/divinilbenzene (65 μm thickness). The search in vapor phase for the carboxylic acids generated by the bacterium's aliphatic amidases activity on the amides administrated was carried out by means of gas chromatography using a capillary column of intermediate polarity. The detection was performed by mass spectrometry comprising 3 scan cycles with selective ion monitoring (SIM) the m/z=74 for the propionic acid and m/z=88 for butyric acid.

[1] = Amide incubated in flask comprising only the medium, without any bacteria addition, SPME GC-MS; format: physicochemical; conditions: 0.5 mL of 20 mM solution, 60 minutes incubation at 37° C.
Description: These compounds were administrated as diluted aqueous solutions (0.5 mL) to the liquid culture media (25 mL), 120 mL glass flasks hermetically sealed and encapsulated with a cap containing a septum.
The collection of the acids that were formed after the amide administration described in 1 was carried out after acidification of the medium with acid tartaric (mimetizing the stomach's pH) and exposing to the flask's vapor phase for 5 minutes at 37° C. a solid-phase microextraction fiber (SPME) coated with carbowax/divinilbenzene (65 μm thickness).
The search in vapor phase for the carboxylic acids generated by the bacterium's aliphatic amidases activity on the amides administrated was carried out by means of gas chromatography using a capillary column of intermediate polarity.
The detection was performed by mass spectrometry comprising 3 scan cycles with selective ion monitoring (SIM) the m/z=74 for the propionic acid and m/z=88 for butyric acid.

| chromatographic peak corresponding to butyric acid [1] | chromatographic peak corresponding to propanoic acid [1] | SMILES | chromatographic area corresponding to the butyric acid (H. pylori; 0.5 mL of 20 mM solution, medium enriched with H. pylori, 60 minutes incubation at 37° C., vapor phase SPME GC-MS m/z=88) | formation of the respective acid in the vapor phase (H. pylori) | chromatographic area corresponding to the propanoic acid (H. pylori; 0.5 mL of 20 mM solution, medium enriched with H. pylori, 60 minutes incubation at 37° C., vapor phase SPME GC-MS m/z=74) |
| --- | --- | --- | --- | --- | --- |
| did not derive any chromatographic peak | – | CCCC(N)=O [butyramide] | 6.5×10^5 | the formation of the respective acids takes place | – |
| – | did not produce any chromatographic peak | CCC(N)=O [propionamide] | – | the formation of the respective acids takes place | 7.0×10^5 |
